In patent US10893676B2, “1-acetyl-3-phenyl urea compound, and use thereof” (Sumitomo Chemical Company, Limited, priority 2016, dated 2021):

Experiments:
[1] = tested on: Amaranthus retroflexus; experiment: Post-emergence treatment test in a farmland (foliar spray, greenhouse pots); assay type: in vivo; settings: application rate 4 kg/ha, sprayed at two-leaf stage, visually evaluated nine days after spraying, 11 stages from 0 (no effect) to 10 (complete kill)
Procedure: Nursery soil was put in a plastic pot measuring 8 cm in diameter and 6.5 cm in height, and in the pot, seeds of Amaranthus retroflexus were sown, and then covered with soil of about 0.5 cm thickness, and the plants were grown in a greenhouse. When the Amaranthus retroflexus plants were grown to two-leaf stage, a diluted solution containing either the present compound or a compound represented by formula (B) below (which is described in European Patent No. 1122244 B2) (hereinafter, referred to as Compound B) was uniformly sprayed on the whole Amaranthus retroflexus plants so that the application rates of the chemicals would be values indicated in Table 1.
Here the diluted solution was prepared by dissolving the present compound or the compound B in dimethylformamide solution containing 2% of Tween 20 (polyoxyethylene sorbitan fatty acid ester) (manufactured by MP Biomedicals Inc.) and then diluting the solution with deionized water.
The Amaranthus retroflexus plants that were sprayed with the diluted solution containing the present compound or the compound B were grown in a greenhouse. Nine days after spraying, the efficacy for controlling Amaranthus retroflexus plants was observed, thereby examining a herbicidal effect. Here the herbicidal effect was visually observed and evaluated by classifying the effect into 11 stages from 0 (no effect) to 10 (complete kill).

[2] = tested on: Arabidopsis thaliana; experiment: Inhibitory activity on emergence of Arabidopsis thaliana (24 well plate, filter paper); assay type: in vivo; settings: treatment concentration 8000 ppm, visually evaluated seven days after sowing, indices 0 (no effect) to 100 (no emergence)
Procedure: Inhibitory Activity on Emergence of Arabidopsis thaliana
Each well of 24 well microtiter plates was matted with a filter paper, and to the filter paper was added dropwise the solution in which the present compound or the compound B was dissolved in acetone. After air-drying, distilled water was added to each well so that the concentration of the present compound or the compound B in each well would be 8000 ppm. Next, seeds of Arabidopsis thaliana were sown into each well containing the present compound or the compound B, followed by putting a lid on each well, and cultivating Arabidopsis thaliana under the condition that a cultivation at 25° C. under lighting for 16 hours and a successive cultivation at 25° C. under dark for 8 hours were repeated. Seven days after sowing, the inhibitory activity on emergence of Arabidopsis thaliana was visually evaluated by classifying the activity into 0 to 100 indices (0: no effect to 100: no emergence).

SMILES	Herbicidal Effect [1]	Inhibitory Activity on Emergence [2]	Herbicidal Effect ([1]; listed as present compound)	Inhibitory Activity on Emergence ([2]; listed as present compound)
CCOC(=O)COc1ncccc1Oc1cc(NC(C)=O)c(F)cc1Cl [Compound B, N-[4-chloro-2-fluoro-5-{2-(ethoxycarbonyl)methoxy-3-pyridyloxy}phenyl]acetamide, reference compound]	1	30	–	–
CCOC(=O)COc1ncccc1Oc1cc(NC(=O)NC(C)=O)c(F)cc1Cl [Present compound]	8	80	higher herbicidal effect compared to the compound B	higher inhibitory activity compared to the compound B
